# Measured values reported in patent publication US10208071B2, “Use of agonists of formyl peptide receptor 2 for treating ocular inflammatory diseases” (Allergan, Inc., priority 2013, dated 2019).
# Assays:
# [1] = target: T1, FPR2 (Homo sapiens (Human), UniProt P25090); experiment: FPR2 Ga16-CHO EC50 (efficacy), Tables 1-3; type: cell-based; conditions: for FPR2 Ga16-CHO (efficacy): efficacy in parentheses
# [2] = test system: corneal epithelial wound; experiment: Alkali burn corneal wound in rabbits; type: in vivo; conditions: FIG. 3; rabbit model, b270 says mouse models; topical three times a day
# Text: Alkali burn in rabbits: Corneal epithelium plays an important role in the maintenance of corneal function and integrity. Prolonged corneal epithelial defects causes corneal opacity, neovascularization, bacterial infection and visual loss. Corneal epithelial healing is a complex process involving inflammatory response to injury, cell proliferation and migration. Animal models of corneal injury are every useful to test new anti-inflammatory and pro-wound healing therapies. New Zealand White rabbits weighing between 2.1 and 2.5 kg were anesthetized systemically with Ketamine/Xylazine (35/5 mg/kg) subcutaneously and topically with proparacaine (0.5%). The corneal epithelial wound in one eye was induced with a NaOH saturated filter paper containing 1.0 N NaOH for 30 seconds. The eyes were rinsed with sterile PBS. The corneal wound was confirmed by fluorescein staining with 10% sodium fluorescein (Science Lab Com) and slit lamp photography. Test compounds were formulated in the vehicle described above. For initial studies compounds were topically dosed three times a day. Quantification of corneal wound areas was done using Image J software where fluorescing stain green part was traced and converted to total pixel.
# [3] = target: T1, FPR2; experiment: FLIPR Ca+2 response, HEK-Gα16 cells stably expressing the human FPR2 receptor (Table 4); type: cell-based; conditions: for FPR2 (efficacy): efficacy in parentheses
# Method in brief: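 HEK-Gα16 cells stably expressing human FPR2, loaded with 2 μM Fluo-4 in HBSS/20 mM HEPES for 40 min at 37° C., then washed. Ligands added in HBSS/Hepes and Ca+2 responses recorded on FLIPR in relative fluorescence units.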
# T1 sequence (P25090 whole entry): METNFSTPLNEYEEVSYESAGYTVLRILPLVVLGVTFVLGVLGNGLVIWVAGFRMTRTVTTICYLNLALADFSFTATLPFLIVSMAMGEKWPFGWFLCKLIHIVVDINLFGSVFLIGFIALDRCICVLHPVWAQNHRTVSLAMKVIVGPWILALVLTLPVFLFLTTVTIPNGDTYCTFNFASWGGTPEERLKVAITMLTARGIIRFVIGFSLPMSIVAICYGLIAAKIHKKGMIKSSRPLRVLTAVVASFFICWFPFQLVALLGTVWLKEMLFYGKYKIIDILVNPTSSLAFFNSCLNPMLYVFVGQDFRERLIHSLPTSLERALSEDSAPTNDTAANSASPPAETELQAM
Compound,EC50 [1] [µM],FPR2 Ga16-CHO (efficacy) [1],healing and re-epithelialization of corneal wound [2],FPR2 (efficacy) [3],EC50 ([3]; unit inferred) [µM]
CC(C)[C@H](NC(=O)Nc1ccc(Br)cc1)C(=O)O [(2S)-2-({[(4-bromophenyl)amino]carbonyl}amino)-3-methylbutanoic acid],0.072,nM (0.91),–,–,–
O=C(Nc1ccc(Br)cc1)N[C@@H](Cc1ccccc1)C(=O)O [(2S)-2-({[(4-bromophenyl)amino]carbonyl}amino)-3-phenylpropanoic acid],0.031,nM (1.0),–,–,–
COc1ccc(NC(=O)N[C@@H](Cc2ccccc2)C(=O)O)cc1 [(2S)-2-({[(4-methoxyphenyl)amino]carbonyl}amino)-3-phenylpropanoic acid],1.75,nM (0.90),–,–,–
O=C(Nc1ccc([N+](=O)[O-])cc1)N[C@@H](Cc1ccccc1)C(=O)O [(2S)-2-({[(4-nitrophenyl)amino]carbonyl}amino)-3-phenylpropanoic acid],–,nM (0.82),–,–,–
O=C(Nc1ccc(C(F)(F)F)cc1)N[C@@H](Cc1ccccc1)C(=O)O [(2S)-3-phenyl-2-[({[4-(trifluoromethyl)phenyl]amino}carbonyl)amino]propanoic acid],0.12,nM (0.97),–,–,–
O=C(Nc1ccc(Br)cc1)N[C@H](C(=O)O)c1ccccc1 [(2S)-({[(4-bromophenyl)amino]carbonyl}amino) (phenyl)acetic acid],0.0258,nM (0.94),–,–,–
"CC[C@H](C)[C@H](NC(=O)Nc1ccc(Br)cc1)C(=O)NCC(=O)O [Compound 3, {[(2S,3S)-2-{[(4-bromophenyl)carbamoyl]amino}-3-methylpentanoyl]amino}acetic acid]",–,–,accelerated healing and re-epithelialization,(1.0),0.00198
"CC[C@H](C)[C@H](NC(=O)Nc1ccc(Br)cc1)C(=O)O [Compound 53, (2S,3S)-2-{[(4-bromophenyl)carbamoyl]amino}-3-methylpentanoic acid]",–,nM (0.89),–,nM (0.9),–
"O=C(CN1C(=O)C2CC=CCC2C1=O)Nc1ccc(Br)cc1 (centres unmarked) [N-(4-bromophenyl)-1,3,3a,4,7,7a-hexahydro-1,3-dioxo-2H-isoindole-2-acetamide]",–,(0.98),–,–,–
"O=C(CN1C(=O)C2C3C=CC(C3)C2C1=O)Nc1ccc(Br)cc1 (centres unmarked) [N-(4-bromophenyl)-1,3,3a,4,7,7a-hexahydro-1,3-dioxo-4,7-methano-2H-isoindole-2-acetamide]",–,(0.90),–,–,–
"O=C(CN1C(=O)NC2(CCCC2)C1=O)Nc1ccc(Br)cc1 [N-(4-bromophenyl)-2-(2,4-dioxo-1,3-diazaspiro[4.4]non-3-yl)acetamide]",0.322,nM (0.96),–,–,–
"O=C(CN1C(=O)NC2(CCCCC2)C1=O)Nc1ccc(Br)cc1 [N-(4-bromophenyl)-2-(2,4-dioxo-1,3-diazaspiro[4.5]dec-3-yl)acetamide]",0.738,nM (0.89),–,–,–
"O=C(CN1C(=O)NC2(CCCCCC2)C1=O)Nc1ccc(Br)cc1 [N-(4-bromophenyl)-2-(2,4-dioxo-1,3-diazaspiro[4.6]undec-3-yl)acetamide]",0.679,nM (0.96),–,–,–
"CCCC1(CCC)NC(=O)N(CC(=O)Nc2ccc(Br)cc2)C1=O [N-(4-bromophenyl)-2-(2,5-dioxo-4,4-dipropylimidazolidin-1-yl)acetamide]",0.645,nM (0.98),–,–,–
"CCC1(CC)NC(=O)N(CC(=O)Nc2ccc(Br)cc2)C1=O [N-(4-bromophenyl)-2-(4,4-diethyl-2,5-dioxoimidazolidin-1-yl)acetamide]",0.096,nM (0.98),–,–,–
"CC1(C)NC(=O)N(CC(=O)Nc2ccc(Br)cc2)C1=O [N-(4-bromophenyl)-2-(4,4-dimethyl-2,5-dioxoimidazolidin-1-yl)acetamide]",0.719,nM (0.94),–,–,–
"CC1(C2CC2)NC(=O)N(CC(=O)Nc2ccc(Br)cc2)C1=O (centres unmarked) [N-(4-bromophenyl)-2-(4-cyclopropyl-4-methyl-2,5-dioxoimidazolidin-1-yl)acetamide]",0.166,nM (0.84),–,–,–
"CCC1(c2ccccc2)NC(=O)N(CC(=O)Nc2ccc(Br)cc2)C1=O (centres unmarked) [N-(4-bromophenyl)-2-(4-ethyl-2,5-dioxo-4-phenylimidazolidin-1-yl)acetamide]",0.523,nM (0.83),–,–,–
"CCC1(C)NC(=O)N(CC(=O)Nc2ccc(Br)cc2)C1=O (centres unmarked) [N-(4-bromophenyl)-2-(4-ethyl-4-methyl-2,5-dioxoimidazolidin-1-yl)acetamide]",0.485,nM (1.0),–,–,–
"CCC1(CC)NC(=O)N(CC(=O)Nc2ccc(Cl)cc2)C1=O [N-(4-chlorophenyl)-2-(4,4-diethyl-2,5-dioxoimidazolidin-1-yl)acetamide]",0.314,nM (0.79),–,–,–
